Here are results for one compound from publication PMC12655426 (Pharmaceutics, 2025).

Data set [1] has as its system human serum albumin (HSA). The following applies: no reference given; cited from earlier work.
A further data set has as its target T1, human MRP2 (Homo sapiens, UniProt Q92887).
T1 construct: purchased BioIVT; host or cells: Sf9 cell-derived membrane vesicles
Kind of data set: OTA uptake in MRP2-expressing Sf9 membrane vesicles. It counts as in vitro ADME. The following applies: 10 μM OTA, 5 min. As for the experimental part: The following experiments were conducted at BioIVT.

The next data set deals with T2, human BCRP (Homo sapiens, UniProt Q9UNQ0).
T2 sequence (Q9UNQ0 1-655): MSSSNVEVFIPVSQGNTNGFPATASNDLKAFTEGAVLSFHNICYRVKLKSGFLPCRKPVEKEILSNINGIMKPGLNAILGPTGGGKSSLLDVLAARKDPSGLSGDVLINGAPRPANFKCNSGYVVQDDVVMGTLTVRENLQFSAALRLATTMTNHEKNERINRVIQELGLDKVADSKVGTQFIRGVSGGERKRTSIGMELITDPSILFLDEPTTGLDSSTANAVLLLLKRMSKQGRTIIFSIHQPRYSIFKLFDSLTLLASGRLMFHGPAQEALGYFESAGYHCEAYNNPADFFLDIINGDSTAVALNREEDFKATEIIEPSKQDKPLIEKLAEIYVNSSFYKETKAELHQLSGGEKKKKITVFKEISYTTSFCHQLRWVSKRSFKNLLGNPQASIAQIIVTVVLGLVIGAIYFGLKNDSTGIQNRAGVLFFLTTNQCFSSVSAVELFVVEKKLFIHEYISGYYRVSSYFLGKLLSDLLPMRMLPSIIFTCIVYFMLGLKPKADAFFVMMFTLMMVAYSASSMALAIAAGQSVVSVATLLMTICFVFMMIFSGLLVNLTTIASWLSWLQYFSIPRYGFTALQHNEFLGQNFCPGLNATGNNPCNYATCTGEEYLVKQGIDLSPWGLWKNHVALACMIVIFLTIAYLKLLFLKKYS
Kind of data set: Bidirectional transport of OTA in BCRP-expressing MDCK-II cells. The following applies: net B to A flux, 1.56 to 100 μM OTA. As for the experimental part:
All cellular-based assays were conducted in technical triplicate across three independent experiments. […] This cutoff was defined a priori. […] Jnet was then treated as the initial uptake rate, and Km and Vmax values were obtained by fitting the Michaelis–Menten equation to the substrate-concentration data as described above. Intrinsic clearance (CLint) was then calculated by the formula, CLint=Vmax/Km using Vmax and Km values as calculated above. […] At steady-state, the mass balance for intracellular concentrations assuming symmetric passive permeabilities (Papical = Pbasal, taken as Papp from mock assays) and apical efflux gives: Ccell= Cbasal/1+ ke/Pa where Cbasal is the concentration in the basal chamber and ke is the first-order elimination with respect to BCRP. Because the asymmetric efflux ratio ERa is defined as: ERa=1+ ke/Pa

For data set [2] the following is noted: 0.5 mg/kg oral, rats, cited from earlier work.
A further data set relates to hPEPT (PEPT1, PEPT2). The data set can be described thus: OTA uptake in PEPT1- and PEPT2-expressing MDCK-II cells. It counts as in vitro ADME, human. The following applies: 10 μM OTA, pH 6.5, 5 min.

Structures are written as SMILES.

T1 sequence (Q92887 whole entry): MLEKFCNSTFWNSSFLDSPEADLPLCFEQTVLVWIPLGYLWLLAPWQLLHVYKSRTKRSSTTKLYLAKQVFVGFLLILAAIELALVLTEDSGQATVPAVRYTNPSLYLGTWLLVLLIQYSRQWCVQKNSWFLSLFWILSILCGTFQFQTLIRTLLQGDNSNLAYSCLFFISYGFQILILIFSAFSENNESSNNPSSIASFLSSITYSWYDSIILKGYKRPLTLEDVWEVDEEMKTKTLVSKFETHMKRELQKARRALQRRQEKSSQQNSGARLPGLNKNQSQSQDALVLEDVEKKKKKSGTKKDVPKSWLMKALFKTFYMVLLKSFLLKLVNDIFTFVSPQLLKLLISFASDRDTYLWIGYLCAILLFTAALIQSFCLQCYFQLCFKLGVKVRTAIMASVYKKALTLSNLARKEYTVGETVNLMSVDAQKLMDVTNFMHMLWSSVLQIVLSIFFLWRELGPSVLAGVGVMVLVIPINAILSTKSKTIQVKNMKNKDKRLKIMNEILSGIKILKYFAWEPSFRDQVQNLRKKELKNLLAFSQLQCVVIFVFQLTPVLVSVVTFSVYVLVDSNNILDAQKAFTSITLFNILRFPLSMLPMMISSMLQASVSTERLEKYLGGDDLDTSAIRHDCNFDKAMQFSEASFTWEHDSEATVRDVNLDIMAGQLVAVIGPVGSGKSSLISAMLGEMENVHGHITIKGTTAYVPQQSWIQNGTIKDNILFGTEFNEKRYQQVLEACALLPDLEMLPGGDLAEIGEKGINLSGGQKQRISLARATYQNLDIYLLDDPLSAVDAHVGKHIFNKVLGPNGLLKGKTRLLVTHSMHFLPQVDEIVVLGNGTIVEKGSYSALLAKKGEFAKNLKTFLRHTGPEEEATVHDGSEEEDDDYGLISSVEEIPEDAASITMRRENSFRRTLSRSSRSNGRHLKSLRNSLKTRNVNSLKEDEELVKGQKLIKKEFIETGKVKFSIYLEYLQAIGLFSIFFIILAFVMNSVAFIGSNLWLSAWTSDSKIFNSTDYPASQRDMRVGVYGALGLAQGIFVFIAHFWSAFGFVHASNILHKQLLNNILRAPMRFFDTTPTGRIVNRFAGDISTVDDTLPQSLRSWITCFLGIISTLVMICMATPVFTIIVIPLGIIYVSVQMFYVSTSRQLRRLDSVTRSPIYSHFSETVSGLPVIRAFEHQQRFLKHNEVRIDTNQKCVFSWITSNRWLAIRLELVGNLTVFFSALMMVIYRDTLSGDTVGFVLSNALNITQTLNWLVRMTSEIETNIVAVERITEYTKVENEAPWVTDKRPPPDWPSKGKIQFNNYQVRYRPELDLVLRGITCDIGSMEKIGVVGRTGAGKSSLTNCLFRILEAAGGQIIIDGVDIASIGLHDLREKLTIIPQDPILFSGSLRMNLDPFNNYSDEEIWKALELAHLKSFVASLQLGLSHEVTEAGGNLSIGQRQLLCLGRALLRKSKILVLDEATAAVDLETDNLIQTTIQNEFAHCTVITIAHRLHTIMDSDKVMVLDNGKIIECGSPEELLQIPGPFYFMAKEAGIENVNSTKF

In the case of `C[C@@H]1Cc2c(Cl)cc(C(=O)N[C@@H](Cc3ccccc3)C(=O)O)c(O)c2C(=O)O1` [OTA, Ochratoxin A], the “bound to human serum albumin” value in data set [1] is more than 99%. For the same compound, the “MRP2-mediated OTA transport” value on human MRP2 is reported as “no MRP2-mediated OTA transport”. The “apparent CLint estimated by the slope of the linearly fitted line” value at human BCRP was 0.29 ± 0.03 µL/min/cm^2. For the same compound, the “OTA accumulated in kidney tissue” value in data set [2] (after 24 h) is recorded as “over 400 pmol/g”. Also, in data set [2] (after 96 h), the “dose recovered in urine and feces” value was 15%. Also, in the data set with hPEPT (PEPT1, PEPT2), the “hPEPT-mediated transport of OTA” value is “did not observe any hPEPT-mediated transport”.
